Laboratory results reported in US9464129B2, “Neuronal exocytosis inhibiting peptides” (BCN PEPTIDES S.A., priority 2006, dated 2016).

Test system: primary cultures of rat hippocampus neurons
Experiment: release of [3H]-L-glutamate from primary cultures of rat hippocampus neurons (neuronal exocytosis)
Type: cell-based
Experimental: Assay of the Activity of the Irreversibly Chemically Modified Peptides Derived from the SNAP-25 Protein on the Neuronal Exocytosis of [^3H]-L-Glutamate
The exocytosis of this neurotransmitter in neuronal cultures can be obtained by means of electric depolarization of the cells. The primary cultures of rat embryonic hippocampus are prepared using conventional methods [Blanes-Mira C., Merino J. M., Valera E., Fernández-Ballester G., Gutiérrez L. M., Viniegra S., Pérez-Payá E. and Ferrer-Montiel A. “Small peptides patterned after the N-terminus domain of SNAP25 inhibit SNARE complex assembly and regulated exocytosis” J. Neurochem. 88, 124-135] and are maintained in culture for 14 days in an incubator at 37° C. and 5% CO2. The cultures are incubated with [^3H]-L-glutamine in order to load them with [^3H]-L-glutamate for 3 h at 37° C. The excess [^3H]-L-glutamine is subsequent washed off and they are incubated with 0.1 mM of the peptides to be studied for 1 h at 37° C. The [^3H]-L-glutamate is released by means of depolarization with 75 mM KCl and 2 mM CaCl2 buffered in physiological buffer for 10 min at 37° C. The culture medium is collected and the amount of [^3H]-L-glutamate is quantified in a beta radiation meter. The results are normalized with regard to the release of [^3H]-L-glutamate in the absence of the peptide and corrected from the basal release in the absence of calcium.

In the case of “SEQ ID No.11: unmodified peptide derived from the amino acid sequence of the SNAP-25 protein, residues 12 to 17 (EEMQRR) (listed as Homo sapiens)”, the “concentration required to reach inhibition levels comparable to those of the irreversibly modified peptides” value (compared with modified peptides at 0.1 mM, in the range of 30 times greater) is reported as about 3 mM and the “inhibition of the release of [3H]-L-glutamate” value (peptide 0.1 mM, 1 h at 37° C., depolarization with 75 mM KCl and 2 mM CaCl2, FIG. 1) is reported as 5%.
